Here are results for four molecules from patent publication US9771379B2, “N-(2-(2-amino-6-substituted-4,4a,5,6-tetrahydropyrano[3,4-d][1,3]OXAZIN-8a(8H)-yl)-thiazol-4-yl) amides” (Pfizer Inc., priority 2015, dated 2017).

For this test, the target named is full length human BACE1 (Homo sapiens (Human), UniProt P56817). Description: BACE1 Scintillation Proximity Binding Assay (SPA). Conditions: radioligand displacement, HEK cell membranes, pH 6.0. How it is done: BACE1 Scintillation Proximity Binding Assay (SPA): The BACE1 binding assay measured beta-site amyloid precursor protein-cleaving enzyme (BACE) binding as a decrease in the counts of radioligand bound in a scintillation proximity assay (SPA). […] Full length human BACE1 over-expressed in HEK cells was prepared by Pfizer scientists. Frozen stock cell paste was reacted in 50 mM sodium acetate buffer (pH=6.0) containing 3H-(4aR,6R,8aS)-8a-(2,4-difluorophenyl)-6-(1-methyl-1H-pyrazol-4-yl)-4,4a,5,6,8,8a-hexahydropyrano[3,4-d][1,3]thiazin-2-amine ligand, SPA bead and 60 μM to 600 pM of test compound in an assay volume of 27 uL. The compound plate also contained positive (BACE inhibitor) and negative (DMSO) control wells. The binding was carried out at room temperature for 30 minutes and then the plates were read on a TriLux Microbeta reader to determine the number of counts bound. The raw data was converted to percent effect compared to positive and negative control wells and the compound concentrations and % effect values for tested compounds were plotted to determine the 50% effect (1050) with a four-parameter logistic dose response equation.
Chain of full length human BACE1 (P56817 46-501): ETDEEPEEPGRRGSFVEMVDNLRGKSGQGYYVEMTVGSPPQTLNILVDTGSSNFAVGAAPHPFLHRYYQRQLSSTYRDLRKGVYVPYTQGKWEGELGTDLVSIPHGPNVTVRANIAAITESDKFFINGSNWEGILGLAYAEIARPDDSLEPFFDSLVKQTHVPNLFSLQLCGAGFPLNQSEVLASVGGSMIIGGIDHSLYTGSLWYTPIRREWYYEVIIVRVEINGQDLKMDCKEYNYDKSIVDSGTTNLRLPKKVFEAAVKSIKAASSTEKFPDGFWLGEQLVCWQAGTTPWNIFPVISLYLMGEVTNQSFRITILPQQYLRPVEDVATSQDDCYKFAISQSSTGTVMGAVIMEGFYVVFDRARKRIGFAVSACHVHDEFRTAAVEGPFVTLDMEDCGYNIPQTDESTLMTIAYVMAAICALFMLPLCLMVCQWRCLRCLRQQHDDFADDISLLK
Take `NC1=N[C@@]2(c3nc(NC(=O)c4cnc(OC(F)F)cn4)cs3)CO[C@@H](C(F)(F)F)C[C@H]2CO1` [Example 20, N-{2-[(4aR,6R,8aR)-2-amino-6-(trifluoromethyl)-4,4a,5,6-tetrahydropyrano [3,4-d][1,3]oxazin-8a(8H)-yl]-1,3-thiazol-4-yl}-5-(difluoromethoxy)pyrazine-2-carboxamide]: the IC50 (usually the concentration needed to halve the response being measured) turned out to be 124 nM.

As for `Cc1cc(C#N)cnc1C(=O)Nc1csc([C@]23CO[C@@H](C(F)(F)F)C[C@H]2COC(N)=N3)n1` [Example 21, N-{2-[(4aR,6R,8aR)-2-amino-6-(trifluoromethyl)-4,4a,5,6-tetrahydropyrano [3,4-d][1,3]oxazin-8a(8H)-yl]-1,3-thiazol-4-yl}-5-cyano-3-methylpyridine-2-carboxamide], the IC50 is 5 nM.

Take `Cc1nc(OC(F)F)cnc1C(=O)Nc1csc([C@]23CO[C@@H](C(F)(F)F)C[C@H]2COC(N)=N3)n1` [Example 22, N-{2-[(4aR,6R,8aR)-2-amino-6-(trifluoromethyl)-4,4a,5,6-tetrahydropyrano [3,4-d][1,3]oxazin-8a(8H)-yl]-1,3-thiazol-4-yl}-5-(difluoromethoxy)-3-methyl pyrazine-2-carboxamide]: the IC50 turned out to be 13 nM.

With `COc1cnc(C(=O)Nc2csc([C@]34CO[C@@H](C(F)(F)F)C[C@H]3COC(N)=N4)n2)c(C)n1` [Example 23, N-{2-[(4aR,6R,8aR)-2-amino-6-(trifluoromethyl)-4,4a,5,6-tetrahydropyrano [3,4-d][1,3]oxazin-8a(8H)-yl]-1,3-thiazol-4-yl}-5-methoxy-3-methylpyrazine-2-carboxamide], the concentration for half-maximal inhibition (IC50) came out at 162 nM. Against the preceding molecule, the IC50 is about 12-fold higher.
